{"source": "patent US20230218675A1", "about": "“EXOSOMES ISOLATED FROM DERMAL PAPILLA PROGENITOR CELLS, AND USE THEREOF” (CELLPARK GLOBAL, priority 2020, published 2023)", "system": "human hair follicles", "experiment": "Human hair follicle organ culture, hair follicle length growth evaluation 1", "assay_type": "cell-based", "conditions": "for 6 days; exosomes 1.0×10^9 particles, minoxidil 1 μM", "protocol": "In order to evaluate effects of the exosomes of the present invention on human hair follicle growth, a human hair follicle organ culture test (ex vivo hair follicle organ culture) was conducted. More specifically, scalp tissues were isolated into the unit of hair follicles, and the remaining hair follicles were used after cutting the part below the sebaceous gland of the isolated hair follicles. The prepared hair follicles were treated with Examples 1 and 2, and minoxidil as a positive control, respectively, and lengths of the hair growing on the 3rd and 6th days were measured, followed by comparing the measured results to the negative control in order to evaluate a length growth and a growth cycle of human hair follicles. […] The lengths of the hair follicles grown on the 3rd and 6th days of the culture, respectively, were measured using a microscope ruler."}
{"smiles": "Nc1cc(N2CCCCC2)nc(N)[n+]1[O-]", "note": "[minoxidil]", "values": [{"measurement": "growth of hair (hair follicle length)", "value": "about 1.5 mm"}]}
